Reference: patent US8383130B2, “Partial peptide of lacritin” (Senju Pharmaceutical Co., Ltd., priority 2008, dated 2013)

How the values were obtained:
Assay type in all cases: cell-based
[1] = tested on: human corneal epithelial cells (HCE-T); test: Adhesion of human corneal epithelial cell to extracellular matrix (Experimental Example 1); settings: polypeptide 100 μg/mL, 50 μL per well, collagen type IV coated plate, 37° C. 20 min, MTT assay, no addition of polypeptide = 100%
Procedure: An extracellular matrix solution (10 μg/mL, collagen type IV: Becton, Dickinson and Company) was added to a 96 well plate (Iwaki Glass Company, Limited). The solution was incubated at 37° C. for 1 hr to coat the plate with the extracellular matrix. After the redundant extracellular matrix solution was removed, 0.1% BSA solution (Sigma-Aldrich Co.) was added to block the region not coated with the extracellular matrix. Successively, the BSA solution was removed and the plate was washed twice with PBS, and polypeptides 1-5 (concentration 100 μg/mL) synthesized in Example 1 and Comparative Example 1 were added by 50 μL per well. Furthermore, established human corneal epithelial cells (HCE-T: can be prepared by the method described in Invest Ophthalmol Vis Sci. 1995, 36, 614) were cultured overnight under serum-free conditions and added to the plate at 2×10^4 cells/100 μL DMEM/F12 medium/well. The plate was incubated at 37° C. for 20 min to allow adhesion of the cells to the plate. The number of the adhered cells was counted by MTT assay (DOJINDO LABORATORIES).

[2] = tested on: human corneal epithelial cells (HCE-T); test: Adhesion of human corneal epithelial cell to extracellular matrix (Experimental Example 2); settings: polypeptide 10 μM in PBS, 50 μL per well, collagen type IV coated plate, 37° C. 25 min, MTT assay, no addition of polypeptide = 100%
Procedure: An extracellular matrix solution (10 μg/mL, collagen type IV: Becton, Dickinson and Company) was added to a 96 well plate (Iwaki Glass Company, Limited). The solution was incubated at 37° C. for 1 hr to coat the plate with the extracellular matrix. After the redundant extracellular matrix solution was removed, 0.1% BSA solution (Sigma-Aldrich Co.) was added to block the region not coated with the extracellular matrix. Successively, the BSA solution was removed and the plate was washed three times with PBS, and polypeptides 4, 6 and 7 synthesized in Example 2 and Comparative Example 1 were suspended in PBS to a final concentration of 10 μM, and the suspension was added by 50 μL per well. Furthermore, established human corneal epithelial cells (HCE-T: can be prepared by the method described in Invest Ophthalmol Vis Sci. 1995, 36, 614) were cultured overnight under serum-free conditions and added to the plate at 2×10^4 cells/100 μL DMEM/F12 medium/well. The plate was incubated at 37° C. for 25 min to allow adhesion of the cells to the well. The number of the adhered cells was counted by MTT assay (DOJINDO LABORATORIES).

[3] = tested on: monkey lacrimal gland acinar cells; test: Secretion of tear protein (lactoferrin) from monkey lacrimal gland acinar cells; settings: 1 μM polypeptide; for lactoferrin secretion amount (ng/10^5 cells): 37° C. 10 min, westernblot, human lactoferrin as standard
Procedure: Monkey lacrimal gland was chopped in a DMEM/F12 medium (Invitrogen Corporation) and treated with HBSS (Invitrogen Corporation) containing 0.76 mg/mL EDTA (Sigma-Aldrich Co.) and DMEM/F12 medium containing 200 U/mL collagenase A (Roche), 698 U/mL Hyarulonidase (Worthington Biochemical Corporation) and 10 U/mL DNase (Roche Diagnostics K.K.), and the cells were isolated. 1×10^6 cells were sown on a 6 well plate (ASAHI GLASS CO., LTD.) coated with 0.01 mg/cm^2 Collagen I (Becton, Dickinson and Company), and cultured in a CO2 incubator at 37° C. overnight. The next day, the medium was changed to a supplement-free DMEM/F12 medium and the cells were pre-incubated at 37° C. for 30 min, and then incubated in a DMEM/F12 medium containing 1 μM polypeptide 1 or 4 at 37° C. for 10 min. Lactoferrin as a tear protein secreted in the medium was detected by westernblot, and quantified using human lactoferrin (Sigma-Aldrich Co.) as the standard. The collected medium was purified by 2D clean up kit (Bio-Rad Laboratories, Inc.), dissolved in NuPAGE LDS sample buffer (Invitrogen Corporation), and thermally denatured at 70° C. for 10 min. An equivalent amount of a sample was electrophoresed in 4-12% NuPAGE Bis Tris gel in MES buffer (Invitrogen Corporation) at 200 V for 35 min, and blotted on a PVDF membrane (Nihon Millipore K.K.) at 100 V for 60 min using Trans Blot Mini Cell (Bio-Rad Laboratories, Inc.). The membrane was blocked with TTBS (Bio-Rad Laboratories, Inc.) containing 5% skim-milk (Bio-Rad Laboratories, Inc.) at room temperature for 30 min, and reacted overnight at 4° C. with lactoferrin antibody (manufactured in rabbit, Sigma-Aldrich Co.) diluted 1000-fold. After washing the membrane with TTBS, the membrane was reacted at room temperature for 60 min with secondary antibody of anti-rabbit HRP, which was diluted 5000-fold. Then detection using ECL plus (GE healthcare) was performed. In addition, the amount of the secreted lactoferrin was quantified by forming an analytical curve of human lactoferrin on the same membrane, and comparing the density of the bands.

Sequence | cell adhesion rate (%) [1] | cell adhesion rate (%) [2] | lactoferrin secretion amount (ng/10^5 cells) [3] | promotion of secretion of lactoferrin (in words) ([3]; 10 min)
EISGPAEPASPPETTTTAQETSAAAVQGTAKVT (listed as Homo sapiens) [polypeptide 4, reference compound] | 100% | 107% | 2.79 ng/10^5 cells | –
EISGPAEPASPPETTTTAQETSAAAVQGTAKVTSSRQELNPLKSIVEKSILLTEQALAKA (listed as Homo sapiens) [polypeptide 7] | – | 190% | – | –
QGTAKVTSSRQELNPL (listed as Homo sapiens) [polypeptide 5, reference compound] | 98% | – | – | –
QGTAKVTSSRQELNPLKSIVEKSILLTEQALAKA (listed as Homo sapiens) [polypeptide 6] | – | 160% | – | –
QGTAKVTSSRQELNPLKSIVEKSILLTEQALAKAGKGMHGGVPGG (listed as Homo sapiens) [polypeptide 2] | 134% | – | – | –
QGTAKVTSSRQELNPLKSIVEKSILLTEQALAKAGKGMHGGVPGGKQFIENGSEF (listed as Homo sapiens) [polypeptide 3] | 147% | – | – | –
VQGTAKVTSSRQELNPLKSIVEKSILLTEQALAKA (listed as Homo sapiens) [polypeptide 1] | 147% | – | 11.7 ng/10^5 cells | promoted the secretion of lactoferrin
